Reference: article PMC8234143, “Synthesis and Antiviral Evaluation of Nucleoside Analogues Bearing One Pyrimidine Moiety and Two D-Ribofuranosyl Residues” (Molecules, 2021)
Entries after “also recorded” stand apart in the source; their conditions may differ. Where two headings read alike, the source gives them in different places.

Legend:
HuTu-80 = assay: Cytotoxicity assay (Cytell Cell Imaging, DAPI/propidium iodide); format: cell-based; details: Homo sapiens, HuTu80; cytotoxic activity, duodenal adenocarcinoma; read-out: IC50 Cancer Cell Lines HuTu-80
M-HeLa = assay: as above; format: cell-based; details: cytotoxic activity, human cervix epitheloid carcinoma, read-out: IC50 Cancer Cell Lines M-HeLa
PC-3 = assay: as above; format: cell-based; details: cytotoxic activity, human prostate adenocarcinoma, read-out: IC50 Cancer Cell Lines PC-3
WI-38 = assay: as above; format: cell-based; details: cytotoxic activity, normal human lung fibroblasts, read-out: IC50 Normal Cell Line WI-38
Coxsackie B3 virus [1] = assay: Antiviral (cytoprotection, MTT) assay against Coxsackie B3 virus in Vero cells; format: cell-based, coxsackievirus B3; details: for IC50: 50% inhibition of virus replication, Vero cells, 48 h; for SI: CC50/IC50 ratio, Coxsackie B3 / Vero
in vitro [2] = details: dog
Vero cells [3] = tested on: Vero cells
in vitro [4] = details: African green monkey, CC50, Vero cells, MTT; concentration causing 50% cell death
[5] = tested on: A/Puerto Rico/8/34 (H1N1) influenza virus; assay: Antiviral (cytoprotection, MTT) assay against influenza virus in MDCK cells; format: cell-based; details: for SI: CC50/IC50 ratio, influenza H1N1 / MDCK; for IC50: 48 h
MDCK cells = details: earlier published compounds; cited from earlier work
Coxsackie B3 virus [6] = tested on: Coxsackie B3 virus; set-up: method as in PMID 32930935; details: cited from earlier work; for IC50: 50% inhibition of virus replication, Vero cells; for SI: CC50/IC50 ratio, Coxsackie B3 / Vero
Vero cells [7] = details: cited from earlier work
[8] = tested on: A/Puerto Rico/8/34 (H1N1) influenza virus; set-up: method as in PMID 32930935; details: cited from earlier work; for IC50: 50% inhibition of virus replication, MDCK cells, earlier published compounds; for SI: CC50/IC50 ratio, influenza H1N1 / MDCK; for antiviral activity against influenza virus A H1N1 (in words): monosubstituted analogues
[9] = Influenza A virus, H1N1, MDCK, 50% inhibition of virus replication, MDCK cells, read-out: IC50
[10] = 50% inhibition of virus replication, MDCK cells, read-out: IC50

| Structure (SMILES) | SI (Coxsackie B3 virus [1]) | IC50 (Coxsackie B3 virus [1]; Enterovirus B, B3, Vero) [µM] | CC50 (in vitro [2]) [µM] | CC50 (in vitro [4]) [µM] | SI [5] | IC50 [5, 9] [µM] | IC50 [8] [µM] | SI [8] | further results |
| --- | --- | --- | --- | --- | --- | --- | --- | --- | --- |
| O=c1[nH]cc(F)c(=O)[nH]1 [5-Fluorouracil, reference compound] | – | – | – | – | – | – | – | – | IC50 (HuTu-80): 65.2 ± 5.5 µM; IC50 (M-HeLa): 62 ± 4.9 µM; IC50 (PC-3): 10.3 ± 0.8 µM; IC50 (WI-38): 82.5 ± 6.6 µM |
| CC(=O)OCC1OC(n2cc(CCCCn3c(C)cc(=O)n(CCCCc4cn(C5OC(COC(C)=O)C(OC(C)=O)C5OC(C)=O)nn4)c3=O)nn2)C(OC(C)=O)C1OC(C)=O (centres unmarked) [Compound 2f] | 1 | 12.4 | > 338 | 18 | 4 | – | – | – | IC50 (Coxsackie B3 virus [1]): > 12.4 µM; IC50 (HuTu-80): > 100 µM; IC50 (M-HeLa): 88.1 ± 7.4 µM; IC50 (PC-3): > 100 µM; CC50 (Vero cells [3]; Vero cells, MTT, concentration causing 50% cell death): 17.7 ± 0.6 µM; IC50 (WI-38): > 100 µM; IC50 ([5]; Influenza A virus, H1N1, MDCK): 96.3 ± 12.4 µM; antiviral activity against influenza virus A H1N1 (in words) ([5]; MDCK cells): inactive |
| Cc1cc(=O)n(Cc2cn(C3OC(CO)C(O)C3O)nn2)c(=O)n1Cc1cn(C2OC(CO)C(O)C2O)nn1 (centres unmarked) [Compound 2g] | 1 | > 543 | > 543 | > 543 | 1 | > 100 | – | – | IC50 ([5]; Influenza A virus, H1N1, MDCK): > 543 µM; antiviral activity against influenza virus A H1N1 (in words) ([5]; MDCK cells): did not demonstrate antiviral activity |
| Cc1cc(=O)n(CCCc2cn(C3OC(CO)C(O)C3O)nn2)c(=O)n1CCCc1cn(C2OC(CO)C(O)C2O)nn1 (centres unmarked) [Compound 2h] | 1 | > 493 | > 493 | > 493 | 1 | > 100 | – | – | IC50 ([5]; Influenza A virus, H1N1, MDCK): > 493 µM |
| Cc1cc(=O)n(CCCCc2cn(C3OC(CO)C(O)C3O)nn2)c(=O)n1CCCCc1cn(C2OC(CO)C(O)C2O)nn1 (centres unmarked) [Compound 2i] | 1 | > 471 | > 471 | > 471 | 8 | 57.5 ± 7.1 | – | – | IC50 (HuTu-80): > 100 µM; IC50 (M-HeLa): 100 ± 8.5 µM; IC50 (PC-3): > 100 µM; cytotoxicity against the Vero cell line (in words) (Vero cells [3]): not cytotoxic; IC50 (WI-38): > 100 µM |
| Cc1cc(=O)[nH]c(=O)n1Cc1cn([C@@H]2O[C@H](CO)[C@@H](O)[C@H]2O)nn1 [Compound 2j] | – | – | – | – | – | – | > 885 | 1 | CC50 (MDCK cells): > 885 µM; IC50 (Coxsackie B3 virus [6]): > 1180 µM; SI (Coxsackie B3 virus [6]): 1 ^4; CC50 (Vero cells [7]): > 1180 µM; antiviral activity against influenza virus A H1N1 (in words) [8]: did not demonstrate antiviral activity |
| Cc1cc(=O)[nH]c(=O)n1CCCc1cn([C@@H]2O[C@H](CO)[C@@H](O)[C@H]2O)nn1 [Compound 2k] | – | – | – | – | – | – | 43 ± 5 | 6 ^4 | IC50 (Coxsackie B3 virus [6]): > 1090 µM; SI (Coxsackie B3 virus [6]): 1 ^4,3; CC50 (Vero cells [7]): > 1090 µM |
| Cc1cc(=O)[nH]c(=O)n1CCCCc1cn([C@@H]2O[C@H](CO)[C@@H](O)[C@H]2O)nn1 [Compound 2m] | – | – | – | – | – | – | 48 ± 6 | 6 ^4 | IC50 (Coxsackie B3 virus [6]): 106 ± 11 µM; SI (Coxsackie B3 virus [6]): 6 ^4,3 |
| CC(=O)OCC1OC(n2cc(CCCCn3c(=O)c4ccccc4n(CCCCc4cn(C5OC(COC(C)=O)C(OC(C)=O)C5OC(C)=O)nn4)c3=O)nn2)C(OC(C)=O)C1OC(C)=O (centres unmarked) [Compound 4f] | – | – | > 324 | – | 3 | 104 ± 15.1 | – | – | antiviral activity against influenza virus A H1N1 (in words) ([5]; MDCK cells): inactive |
| O=c1c2ccccc2n(Cc2cn(C3OC(CO)C(O)C3O)nn2)c(=O)n1Cc1cn(C2OC(CO)C(O)C2O)nn1 (centres unmarked) [Compound 4g] | 2 | > 170 | > 510 | 381 ± 26.1 | 3 | > 100 | – | – | IC50 [5, 10]: 180 ± 19.9 µM |
| O=c1c2ccccc2n(CCCc2cn(C3OC(CO)C(O)C3O)nn2)c(=O)n1CCCc1cn(C2OC(CO)C(O)C2O)nn1 (centres unmarked) [Compound 4h] | 1 | > 465 | > 465 | > 465 | 3 | > 100 | – | – | IC50 [5, 10]: 186 ± 21.6 µM; antiviral activity against influenza virus A H1N1 (in words) ([5]; MDCK cells): did not demonstrate antiviral activity |
| O=c1c2ccccc2n(CCCCc2cn(C3OC(CO)C(O)C3O)nn2)c(=O)n1CCCCc1cn(C2OC(CO)C(O)C2O)nn1 (centres unmarked) [Compound 4i] | 1 | > 446 | > 446 | > 446 | 2 | 297 | – | – | IC50 [5, 10]: 297 ± 32.4 µM |
| O=c1[nH]c(=O)n(Cc2cn([C@@H]3O[C@H](CO)[C@@H](O)[C@H]3O)nn2)c2ccccc12 [Compound 4j] | – | – | – | – | – | – | 42 ± 5 | 3 | IC50 (Coxsackie B3 virus [6]): 133 ± 15 µM; SI (Coxsackie B3 virus [6]): 1 ^4 |
| O=c1[nH]c(=O)n(CCCc2cn([C@@H]3O[C@H](CO)[C@@H](O)[C@H]3O)nn2)c2ccccc12 [Compound 4k] | – | – | – | – | – | – | 212 ± 25 | 4 ^4 | CC50 (MDCK cells): > 744 µM; IC50 (Coxsackie B3 virus [6]): > 82 µM; SI (Coxsackie B3 virus [6]): 1 ^4,3; CC50 (Vero cells [7]): 101 ± 8 µM; antiviral activity against influenza virus A H1N1 (in words) [8]: did not demonstrate antiviral activity |
| O=c1[nH]c(=O)n(CCCCc2cn([C@@H]3O[C@H](CO)[C@@H](O)[C@H]3O)nn2)c2ccccc12 [Compound 4m] | – | – | – | – | – | – | 30 ± 4 | 24 | CC50 (MDCK cells): > 719 µM; IC50 (Coxsackie B3 virus [6]): > 79 µM; SI (Coxsackie B3 virus [6]): 1 ^4,3 |
| O=c1c2nc3ccccc3nc2n(Cc2cn(C3OC(CO)C(O)C3O)nn2)c(=O)n1Cc1cn(C2OC(CO)C(O)C2O)nn1 (centres unmarked) [Compound 5g] | 1 | > 468 | > 468 | > 468 | 3 | > 100 | – | – | IC50 [5, 10]: 187 ± 20.8 µM |
| O=c1c2nc3ccccc3nc2n(CCCc2cn(C3OC(CO)C(O)C3O)nn2)c(=O)n1CCCc1cn(C2OC(CO)C(O)C2O)nn1 (centres unmarked) [Compound 5h] | 1 | > 431 | > 431 | > 431 | 4 | > 100 | – | – | IC50 [5, 10]: 115 ± 15.2 µM |
| CC(=O)OCC1OC(n2cc(CCCc3c(C)[nH]c(=O)n(CCCc4cn(C5OC(COC(C)=O)C(OC(C)=O)C5OC(C)=O)nn4)c3=O)nn2)C(OC(C)=O)C1OC(C)=O (centres unmarked) [Compound 11c] | – | – | > 349 | – | 12 | 29.2 ± 4.3 | – | – | – |
| CC(=O)OCC1OC(n2cc(CCCCc3c(C)[nH]c(=O)n(CCCCc4cn(C5OC(COC(C)=O)C(OC(C)=O)C5OC(C)=O)nn4)c3=O)nn2)C(OC(C)=O)C1OC(C)=O (centres unmarked) [Compound 11d] | – | – | > 338 | – | 3 | 119 ± 8.7 | – | – | antiviral activity against influenza virus A H1N1 (in words) ([5]; MDCK cells): did not demonstrate antiviral activity; also recorded: inactive |
| Cc1[nH]c(=O)n(CCCc2cn(C3OC(CO)C(O)C3O)nn2)c(=O)c1CCCc1cn(C2OC(CO)C(O)C2O)nn1 (centres unmarked) [Compound 11e] | 2 | > 164 | > 493 | 394 ± 21.1 | 3 | 164 ± 19.2 | – | – | antiviral activity against influenza virus A H1N1 (in words) ([5]; MDCK cells): completely inactive |
| Cc1[nH]c(=O)n(CCCCc2cn(C3OC(CO)C(O)C3O)nn2)c(=O)c1CCCCc1cn(C2OC(CO)C(O)C2O)nn1 (centres unmarked) [Compound 11f] | 1 | > 471 | > 471 | > 471 | 1 | – | – | – | IC50 ([5]; Influenza A virus, H1N1, MDCK): > 471 µM; antiviral activity against influenza virus A H1N1 (in words) ([5]; MDCK cells): did not demonstrate antiviral activity |
| Cc1[nH]c(=O)[nH]c(=O)c1CCCc1cn([C@@H]2O[C@H](CO)[C@@H](O)[C@H]2O)nn1 [Compound 11g] | – | – | – | – | – | – | 67 ± 8 | 2 ^4 | CC50 (MDCK cells): 104 ± 8 µM; SI (Coxsackie B3 virus [6]): 4 ^4; CC50 (Vero cells [7]): 140 ± 10 µM |
| Cc1[nH]c(=O)[nH]c(=O)c1CCCCc1cn([C@@H]2O[C@H](CO)[C@@H](O)[C@H]2O)nn1 [Compound 11h] | – | – | – | – | – | – | 15 ± 3 | 5 | CC50 (MDCK cells): 79 ± 6 µM; IC50 (Coxsackie B3 virus [6]): > 263 µM; SI (Coxsackie B3 virus [6]): 2 ^4; CC50 (Vero cells [7]): 525 ± 31 µM |
| CC(=O)OC[C@H]1O[C@@H](n2cc(CCCCc3c(C)[nH]c(=O)[nH]c3=O)nn2)[C@H](OC(C)=O)[C@@H]1OC(C)=O [Compound 11i] | – | – | – | – | – | – | > 592 | 1 ^4 | CC50 (MDCK cells): > 592 µM; antiviral activity against influenza virus A H1N1 (in words) [8]: did not demonstrate antiviral activity |
| Cc1[nH]c(=O)[nH]c(=O)c1CCCCc1cn([C@@H]2O[C@H](CO)[C@@H](O)[C@H]2O)nn1 [Compound 11j] | – | – | – | – | – | – | > 787 | 1 | CC50 (MDCK cells): > 787 µM; antiviral activity against influenza virus A H1N1 (in words) [8]: did not demonstrate antiviral activity |
| CCC(CC)O[C@@H]1C=C(C(=O)O)C[C@H](N)[C@H]1NC(C)=O [Oseltamivir carboxylate, reference compound] | – | – | > 200 | – | >667 | – | – | – | IC50 ([5]; Influenza A virus, H1N1, MDCK): 0.3 ± 0.06 µM |
| Cc1cc(CCCOc2c(C)cc(-c3noc(C(F)(F)F)n3)cc2C)on1 [Pleconaril, reference compound] | 46 | 21.6 | – | > 1000 | – | – | – | – | – |
| CC(N)C12CC3CC(CC(C3)C1)C2 (centres unmarked) [Rimantadine, reference compound] | – | – | 340 ± 16 | – | 4 | – | – | – | IC50 ([5]; Influenza A virus, H1N1, MDCK): 77 ± 8 µM |
